Laboratory results reported in patent US20090298077A1, “ASSAY FOR MEASUREMENT OF APURINIC/APYRIMIDINIC (AP) SITES AND FOR SCREENING AP-SITE REACTIVE COMPOUNDS” (priority 2006, published 2009).
“And” between values parts separate entries of the source, which are not always exact repeats. Identical values can stand only once.

How the values were obtained:
AP-DNA [1] = experiment: FARP AP-site assay: screening of MX-like compounds in competition with FARP; format: binding, calf; conditions: 100 nM AP-DNA
Method: (§1) 100 μL of 5 μM FARP in phosphate buffer (10 mM, pH 7.0) was added to 200 μL phosphate buffer (10 mM, pH 7.0) containing 10 μg of DNA extracted from cells, individual AP-DNA standard (10, 20, 40, 80, 160, 320, and 640 nM AP), and blank AP-DNA control, respectively. After vortexing, the reaction was allowed to proceed at room temperature for 15 min. At the end of the reaction 200 μL ammonium acetate (7.5M) and 1000 μL ice-cold ethanol (100%) were added. The solution was mixed gently by inverting the tube before keeping it at −20° C. for 30 min. Each tube was centrifuged at 4° C. and 12,000 g for 10 min. The supernatant was poured out carefully so that no loss of FARP-AP-DNA took place. 1200 μL of ice-cold ethanol (70%) was added to each tube to remove the free FARP by centrifugation at 4° C. and 12,000 g for 10 min. This washing step with 70% ice-cold ethanol was repeated two more times. After discarding the supernatant, the FARP-AP-DNA precipitate in the tube was dried at room temperature for 30 min. in a venting hood. The FARP-AP-DNA precipitate was hydrated and resuspended in 200 μL of phosphate buffer (10 mM, pH 9.0) at room temperature for 1 hr. The fluorescence intensity of the resultant FARP-AP-DNA solution was measured by the FluoroMax-2 spectrofluorometer. A calibration curve could be constructed by plotting the fluorescence intensity versus the concentration of AP sites.
One important application of the FARP AP-site assay developed is to screen MX-like compounds for their reactivity to AP site based on known chemical structures. In this work, four compounds with aminooxy or hydrazone group (i.e., MXL1O1, MXLIO2, MXLI 03, and MXL 104) together with MX were tested. The detail experiment included mixing equal concentration and volume of each individual test compound with FARP (50 μM in 100 μL of 10 mM phosphate buffer at pH 7.0) before reacting with 200 µL of 100 nM AP-DNA. The remaining experimental procedures were the same as described in the Experimental section. The data of fluorescence intensity reduced by MX and MX-like compounds were given in Table XI and the fluorescence intensity of the test compounds were compared in FIG. 19.

AP-DNA [2] = experiment: Reversibility study of the condensation reaction between FARP / MX and AP-DNA; format: binding, calf; conditions: result in words, under the assay conditions
Method: It was known that the aldehyde group of an AP site could easily condense with aminooxy or hydrazone nucleophiles. However, the reversibility of the reaction was not clear, especially in the presence of another competing nucleophile. To clarify the above, two experiments were designed and carried out as follows: (a) FARP (50 μM in 100 μL of 10 mM phosphate buffer at pH 7.0) reacted with AP-DNA (125 nM in 200 μL of 10 mM phosphate buffer at pH 7.0) for 1 hr, after washing the condensation product (FARP-AP-DNA) incubated with MX (50 μM in 100 μL of 10 mM phosphate buffer at pH 7.0) for various time periods; and (b) MX (50 μM in 100 μL of 10 mM phosphate buffer at pH 7.0) reacted with AP-DNA (125 nM, 200 μL) for 1 hr, after washing the condensation product (MX-AP-DNA) incubated with FARP (50 μM in 100 μL of 10 mM phosphate buffer at pH 7.0) for various time periods.

SW480 colon cancer cells [3] = experiment: ARP assay of AP sites in DNA from drug-treated SW480 cells; format: cell-based; conditions: 2 hrs at 37° C., MX 12.5 mM where combined
Source text: (§2) An ARP method modified for the slot-blot vacuum filter device was used in this work. […]

SW480 colon cancer cells [4] = experiment: FARP assay of AP sites in DNA from drug-treated SW480 cells; format: cell-based; conditions: 2 hrs at 37° C., MX 12.5 mM where combined
Method: as §1
(§3) Adherent SW480 colon cancer cells (from the American Type Culture Collection (Manassas, Va., USA), and human nonadherent mononuclear cells from heparinized peripheral blood of a normal donor, which were purified by the Ficoll-Hypaque density gradient centrifugation technique, were used in the in vitro experiments of TMZ and MX.
(§4) The cells (5×10^6 cells) were plated in 100-mm culture dishes and treated by TMZ alone at various concentrations (0, 187, 375, 750, and 1500 μM), and together with MX (12.5 mM) for 2 hrs at 37° C. At the end of treatment, the cells were washed by either rinsing the SW480 cells on dishes (SW480) or centrifugation of the human cells in tubes with the media. […]

[5] = tested on: human nonadherent mononuclear cells; experiment: ARP assay of AP sites in DNA from drug-treated human nonadherent mononuclear cells; format: cell-based; conditions: human nonadherent cell, 2 hrs at 37° C., MX 12.5 mM where combined
Source text: as §2

[6] = tested on: human nonadherent mononuclear cells; experiment: FARP assay of AP sites in DNA from drug-treated human nonadherent mononuclear cells; format: cell-based; conditions: human nonadherent cell, 2 hrs at 37° C., MX 12.5 mM where combined
Method: as §1, §3
as §4, with “media. After plating the cells in dishes with fresh media, 3 mM MX was added to the dishes that were treated with TMZ and MX together. The cells were harvested by centrifugation at […] after the treatment of 3 mM MX.” for “media.”

[7] = test compound mixed with FARP at equal concentration and volume (50 μM in 100 μL, pH 7.0)

SMILES | Normalized Fluorescence Intensity % (AP-DNA [1]; relative to FARP alone = 100, equal concentration of test compound and FARP) [%] | Fluorescence Intensity Individual Measurement (AP-DNA [1]; [7]) | Fluorescence Intensity Mean (AP-DNA [1]; [7]) | reversibility of the condensation reaction with aldehyde group of AP-DNA (AP-DNA [2]) | ARP Assay Band Intensity/10^3 (SW480 colon cancer cells [3]; SW480, TMZ 187 μM) | ARP Assay Band Intensity/10^3 (SW480 colon cancer cells [3]; SW480, TMZ 375 μM) | ARP Assay Band Intensity/10^3 (SW480 colon cancer cells [3]; SW480, TMZ 750 μM) | FARP Assay Fluorescence Intensity/10^4 (SW480 colon cancer cells [4]; SW480, TMZ 187 μM) | FARP Assay Fluorescence Intensity/10^4 (SW480 colon cancer cells [4]; SW480, TMZ 375 μM) | FARP Assay Fluorescence Intensity/10^4 (SW480 colon cancer cells [4]; SW480, TMZ 750 μM) | ARP Assay Band Intensity/10^3 ([5]; TMZ 187 μM) | ARP Assay Band Intensity/10^3 ([5]; TMZ 375 μM) | ARP Assay Band Intensity/10^3 ([5]; TMZ 750 μM) | ARP Assay Band Intensity/10^3 ([5]; TMZ 1500 μM) | FARP Assay Fluorescence Intensity/10^4 ([6]; TMZ 187 μM) | FARP Assay Fluorescence Intensity/10^4 ([6]; TMZ 375 μM) | FARP Assay Fluorescence Intensity/10^4 ([6]; TMZ 750 μM) | FARP Assay Fluorescence Intensity/10^4 ([6]; TMZ 1500 μM)
NNC(=S)Nc1ccc(-c2c3ccc(=O)cc-3oc3cc(O)ccc23)c(C(=O)O)c1 [FARP, fluorescein-5-thiosemicarbazide] | 100.0 | 17080.0 and 16892.0 | 16986.0 | irreversible | – | – | – | – | – | – | – | – | – | – | – | – | – | –
Cn1nnc2c(C(N)=O)ncn2c1=O [TMZ, 3,4-dihydro-3-methyl-4-oxoimidazo[5,1-d]-as-tetrazine-8-carboxamide] | – | – | – | – | 1.420 | 2.723 | 5.233 | 2.428 | 3.691 | 5.310 | 2.201 | 3.524 | 4.352 | 5.844 | 1.622 | 3.138 | 4.201 | 15.77
